From EP3623369A1, “NOVEL MORPHOLINYL AMINE COMPOUNDS FOR THE TREATMENT OF AUTOIMMUNE DISEASE” (F. Hoffmann-La Roche AG, priority 2018, dated 2020)

Target: T1, hTLR9 (Homo sapiens, UniProt Q9NR96)
T1 sequence (Q9NR96 26-1032): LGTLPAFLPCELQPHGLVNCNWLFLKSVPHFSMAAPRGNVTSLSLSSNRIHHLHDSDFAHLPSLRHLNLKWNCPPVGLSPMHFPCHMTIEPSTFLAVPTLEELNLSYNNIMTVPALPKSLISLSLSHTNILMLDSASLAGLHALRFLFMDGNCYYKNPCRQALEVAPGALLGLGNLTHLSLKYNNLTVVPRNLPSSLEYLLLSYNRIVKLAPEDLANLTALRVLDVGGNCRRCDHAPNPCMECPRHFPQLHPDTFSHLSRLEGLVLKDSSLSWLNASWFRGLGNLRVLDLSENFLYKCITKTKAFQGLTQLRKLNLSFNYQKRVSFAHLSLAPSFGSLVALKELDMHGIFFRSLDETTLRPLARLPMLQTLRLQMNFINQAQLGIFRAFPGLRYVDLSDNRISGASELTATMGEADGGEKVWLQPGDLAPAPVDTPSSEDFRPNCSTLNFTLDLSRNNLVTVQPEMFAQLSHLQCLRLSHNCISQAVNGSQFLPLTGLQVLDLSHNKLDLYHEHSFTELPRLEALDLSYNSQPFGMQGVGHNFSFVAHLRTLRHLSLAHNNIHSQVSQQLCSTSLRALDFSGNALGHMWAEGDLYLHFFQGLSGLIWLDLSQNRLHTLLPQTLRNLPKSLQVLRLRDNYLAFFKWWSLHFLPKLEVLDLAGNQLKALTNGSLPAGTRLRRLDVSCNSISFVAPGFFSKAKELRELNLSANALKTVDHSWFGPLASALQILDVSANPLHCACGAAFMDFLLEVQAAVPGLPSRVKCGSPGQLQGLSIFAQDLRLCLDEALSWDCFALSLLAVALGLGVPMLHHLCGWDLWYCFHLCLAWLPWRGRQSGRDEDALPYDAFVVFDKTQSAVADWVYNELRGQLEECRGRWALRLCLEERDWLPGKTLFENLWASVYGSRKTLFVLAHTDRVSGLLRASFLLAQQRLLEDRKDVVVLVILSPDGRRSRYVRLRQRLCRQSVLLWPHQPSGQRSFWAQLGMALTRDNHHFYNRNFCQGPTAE
Experiment: HEK293-Blue-hTLR-9 cells assay (SEAP reporter, ODN2006 stimulation)
Format: cell-based
Details: HEK293-Blue-hTLR9 cells, ODN2006, 20 hrs; 0.032 is the lowest tested concentration; read-out: HEK/hTLR9 IC50
Outline: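 HEK293-Blue cells with an NF-κB/AP-1-driven SEAP reporter were exposed to serially diluted compound (1% DMSO final) plus ODN2006 for 20 h at 37 °C. Supernatant SEAP was developed with QUANTI-Blue for 2 h at 37 °C and absorbance read at 620–655 nm; antagonism appears as reduced reporter signal.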

Q: How did the IC50 turn out when `C[C@@H]1CN(c2ccc(C#N)c3ncccc23)C[C@H](CN2Cc3ccc(N4CCNC[C@@H]4CO)cc3C2)O1` [Example 82, 5-[(2S,6R)-2-[[5-[(2R)-2-(hydroxymethyl)piperazin-1-yl]isoindolin-2-yl]methyl]-6-methyl-morpholin-4-yl]quinoline-8-carbonitrile] was run?
A: 54 nM

Q: With `C[C@@H]1CN(c2ccc(C#N)c3ncccc23)C[C@H](CN2Cc3ccc(N4CCNC[C@H]4CO)cc3C2)O1` [Example 83, 5-[(2S,6R)-2-[[5-[(2S)-2-(hydroxymethyl)piperazin-1-yl]isoindolin-2-yl]methyl]-6-methyl-morpholin-4-yl]quinoline-8-carbonitrile] as the compound, how does the IC50 read?
A: 63 nM

Q: `C[C@@H]1CN(c2ccc(C#N)c3nccnc23)C[C@H](CNCc2ccc(N3CCNCC3)cc2)O1` [Example 84, 8-[(2R,6S)-2-methyl-6-[[(4-piperazin-1-ylphenyl)methylamino]methyl]morpholin-4-yl]quinoxaline-5-carbonitrile] was tested. Which IC50 did it give?
A: 50 nM

Q: With `C[C@@H]1CN(c2ccc(C#N)c3ncccc23)C[C@H](CNCc2ccc(N3CCNCC3)cc2)O1` [Example 86, 5-[(2R,6S)-2-methyl-6-[[(4-piperazin-1-ylphenyl)methylamino]methyl]morpholin-4-yl] quinoline-8-carbonitrile] as the compound, how does the IC50 read?
A: < 32 nM

Q: For `C[C@@H]1CN(c2ccc(C#N)n3nccc23)C[C@H](CN2CCc3cnccc3C2)O1` [Example R1, 4-[(2S,6R)-2-(3,4-dihydro-1H-2,6-naphthyridin-2-ylmethyl)-6-methyl-morpholin-4-yl]pyrazolo[1,5-a]pyridine-7-carbonitrile, reference compound], which IC50 is on record?
A: 50600 nM

Q: With `C[C@@H]1CN(c2ccc(C#N)n3nccc23)C[C@H](CN2Cc3ccncc3C2)O1` [Example R2, 4-[(2S,6R)-2-(1,3-dihydropyrrolo[3,4-c]pyridin-2-ylmethy1)-6-methyl-morpholin-4-yl]pyrazolo[1,5-a]pyridine-7-carbonitrile, reference compound] as the compound, how does the IC50 read?
A: 47000 nM

Q: For `C[C@@H]1CN(c2ccc(C#N)c3ncccc23)C[C@H](CN2Cc3ccccc3C2)O1` [Example R3, 5-[(2S,6R)-2-(isoindolin-2-ylmethyl)-6-methyl-morpholin-4-yl]quinoline-8-carbonitrile, reference compound], which IC50 is on record?
A: 5540 nM
